{"source": "patent US20260240914A1", "about": "“MENIN-MLL INHIBITORS AND COMPOSITIONS FOR PROLIFERATION OF BETA CELLS” (BIOMEA FUSION, INC., priority 2022, published 2026)", "format_in_all_cases": "cell-based", "key": {"[1]": {"test_system": "human pancreatic islet beta cells", "assay": "Beta cell proliferation in human islet microtissues (EdU / NKX6.1 3D staining and microscopy)", "settings": "for proliferating beta cell fraction (EdU+NKX6.1+/NKX6.1 %): 0.3 μM", "experimental": "(§1) The ability of menin-MLL inhibitors to induce beta cell proliferation is tested on human islet microtissue preparations (InSphero). Briefly, human islet microtissues are produced by enzymatic dissociation of the primary islet cells followed by controlled scaffold-free hanging-drop-based self-reaggregation of the islet cells (Misun et al., 2020, Adv. Biosyst. 2020, 4, 1900291). The process helps eliminate contaminating exocrine cells, while enabling homogenous and native-like distribution of endocrine cells within each islet microtissue. Islet microtissues generated by this process are uniform in size, and cellular composition, long lived, functionally robust and display long-term and stable functionality and viability during in vitro culture (Misun et al., 2020, Adv. Biosyst. 2020, 4, 1900291). The methodology confirms primary human beta cells can be cultured long term (few weeks) under ex-vivo culture conditions to enable beta cell expansion ex-vivo.\nIslet microtissues (MTs) were aggregated for 5 days and then released into ultra-low attachment plates. Half of the plates were maintained in standard culture medium (5.5 mM glucose), and half were cultured in high-glucose culture medium (GTX, 8 mM glucose) starting at Day 9, for the duration of the whole experiment. Starting on Day 12 (after 3 days of GTX pre-treatment for the relevant plates), dosing with compound 10, a representative irreversible menin-MLL inhibitor, was initiated, using a Tecan D300e Digital Dispenser for harmine and Biomea compound. DMSO was normalized by volume across all wells. Media was exchanged and compounds redosed every 2-3 days throughout the experiment. EdU was included during the final 4 days of each treatment period. Compound dosing was randomized; to avoid compound cross-contamination between wells, all media exchanges were performed using 96-well deep-well plates with pipette tip exchange.\nProliferating cells were labeled in 3D by incubating MTs with […] EdU during the final 4 days of compound treatment. At the described termination point (1, 2, or 3 weeks), MTs were washed twice with PBS, fixed for 15 min in 4% PFA, washed twice more with PBS and stored in PBS with 0.05% sodium azide until staining. Islet MTs were then permeabilized with permeabilization buffer (Triton® X-100, 0.5% in PBS w/o Mg2+Ca2+) and washed twice with PBS. EdU was labeled using the Click-it reaction (Click-iT™ EdU Alexa Fluor™ 647 HCS Assay, Thermo Fisher). MTs were washed twice with PBS and blocked with 10% FCS solution to prevent nonspecific antibody binding, before overnight incubation with rabbit mAB NKX6.1 [EPR20405] (Abcam, ab221549) at a 1:200 dilution in antibody dilution buffer (10% FCS, 0.2% Triton® X-100 in PBS w/o Mg2+Ca2+) as a […]. Goat anti-rabbit secondary antibody AF568 (ThermoFisher A11036) was used as secondary antibody at a 1:200 dilution in antibody dilution buffer, along with DAPI. Finally, islet MTs were transferred into Akura 384-well plates and cleared with ScaleS4 for 3D imaging. Images were acquired using the Yokogawa CQI Benchtop High-Content Analysis System, taking fluorescent images in […] z-steps in blue, red and far-red channels. DAPI-, NKX6.1- and EdU-positive nuclei and signal colocalization were quantified in 3D using a customized CellPathfinder pipeline. Proliferating cells and proliferating-cells were manually counted to validate automated results. Statistical significance was determined with One-way ANOVA and Dunnett's multiple comparisons test, rejecting the null hypothesis at p=0.05. Outliers were detected with ROUT's outlier test (Q=5%). No outlier test was applied to the proliferating cells."}, "human islet microtissues": {"test_system": "human islet microtissues", "assay": "Total ATP content of human islet microtissues (CellTiter-Glo cell viability)", "settings": "0.075 μM, 0.15 μM and 0.3 μM; 1, 2 or 3 weeks; through the duration of the assay", "experimental": "as §1, with “The methodology confirms primary human beta cells can be cultured long term (few weeks) under ex-vivo culture conditions to enable beta cell expansion ex-vivo.” left out\n(§2) At the described termination point (1, 2, or 3 weeks), culture media supernatants were collected for measurement of chronic insulin secretion (insulin secreted since last medium exchange, i.e. 72 hours in this project). […] Tissues were next analyzed for total ATP content using the Promega CellTiter-Glo® Luminescent Cell Viability Assay. […] Supernatants and lysates were appropriately diluted and total and secreted insulin were quantified using ALPCO Stellux® Chemi Human Insulin ELISA."}, "human islet beta cells [2]": {"test_system": "human islet beta cells", "assay": "Total insulin content of human islet microtissues (insulin ELISA of lysates)", "experimental": "as §1, with “The methodology confirms primary human beta cells can be cultured long term (few weeks) under ex-vivo culture conditions to enable beta cell expansion ex-vivo.” left out\nas §2"}, "human islet beta cells [3]": {"test_system": "human islet beta cells", "assay": "Glucose stimulated insulin secretion assay in human islet microtissues", "experimental": "as §1, with “The methodology confirms primary human beta cells can be cultured long term (few weeks) under ex-vivo culture conditions to enable beta cell expansion ex-vivo.” left out\nas §2"}, "[4]": {"settings": "compound 10 treatment, dose-dependent"}, "[5]": {"settings": "standard glucose culture conditions (5.5 mM glucose)"}}, "data": [{"smiles": "C=CC(=O)N[C@@H]1CCCN(Cc2ccnc(C(=O)Nc3ccc(-c4cc5c(N6CCOCC6)ncnc5[nH]4)cc3)c2)C1", "note": "(racemic) [Compound 10]", "values": [{"measurement": "proliferation at all three concentrations", "setting": "[1]; 0.075 μM, 0.15 μM, and 0.3 μM, 7, 14, 21 days, reached highest by day 21", "result": "increase in proliferation"}, {"measurement": "proliferating beta cell fraction (EdU+NKX6.1+/NKX6.1 %)", "setting": "[1]; Day 14 of culture, compared to DMSO control (FIG. 1, graphs B)", "result": "substantially"}, {"measurement": "proliferating beta cell fraction (EdU+NKX6.1+/NKX6.1 %)", "setting": "[1]; Day 21 of culture, compared to DMSO control (FIG. 2, graphs B)", "result": "substantially"}, {"measurement": "Total cell proliferation", "setting": "[1]; compared to DMSO control", "result": "not increased"}, {"measurement": "Total β-cell count", "setting": "[1]; [4]", "result": "significantly increased"}, {"measurement": "β-cell fraction (NKX6.1+/DAPI+ %)", "setting": "[1]; [4]", "result": "significantly increased"}, {"measurement": "β-cell proliferation relative to solvent control", "setting": "[1]; high glucose medium (8 mM glucose), 0.075 μM, 0.15 μM, and 0.3 μM, more pronounced than in standard medium", "result": "dose dependent increase"}, {"measurement": "viability as revealed by ATP content readout", "setting": "human islet microtissues", "result": "good viability"}, {"measurement": "beta cell insulin content", "setting": "human islet beta cells [2]; high glucose conditions (8 mM glucose), treated for 2 and 3 weeks, vs vehicle control (DMSO)", "result": "dose dependent increase"}, {"measurement": "total insulin content", "setting": "human islet beta cells [2]; [5]", "result": "largely unchanged"}, {"measurement": "glucose stimulated insulin secretion", "setting": "human islet beta cells [3]; high glucose conditions (8 mM glucose), compared to vehicle treatment", "result": "improved"}, {"measurement": "glucose stimulated insulin secretion (improvement)", "setting": "human islet beta cells [3]; [5]", "result": "not observed"}]}]}
